This assay in a line: Antagonist activity at CXCR4 receptor in human SUP-T1 cells assessed as reduction in SDF-1alpha-stimulated cell migration and measured by CellTiter-96 assay.

SMILES strings stand for the structures.

What is called IC50 is the concentration needed to halve the response being measured.

As for `N=C(N)NCCC[C@H](NCc1ccccn1)C(=O)NCc1ccc(CNCCCNC2CCCCC2)cc1`, the IC50 amounted to 236 nM.

(Values after BindingDB's records for PubMed 35124530 (Tsinghua University, 2022).)
